The values that follow come from patent US20240150340A1, “CDK Inhibitors And Their Use As Pharmaceuticals” (Prelude Therapeutics Incorporated, priority 2022, published 2024).

Test [1] addresses T1, CDK2/Cyclin E2 (Homo sapiens, UniProt P24941).
T1 construct: Recombinant protein complex CDK2/Cyclin E2, expressed from insect cell, was purchased from ProQinase
Put plainly: CDK2/CyclinE2 Enzymatic Activity Assay (TR-FRET). It counts as biochemical. To be noted: ATP 1 mM final, read-out: CDK2_E1 IC50. The gist of the method: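 Recombinant insect-cell CDK2/Cyclin E2 (1 nM) phosphorylated ULight-4E-BP1 (50 nM) with 1 mM ATP in HEPES pH 7.4 buffer, after 20 min compound preincubation; MgCl2 (10 mM) started the 45 min reaction at 37° C. Europium anti-phospho-4E-BP1 TR-FRET read; 9-dose IC50 by 4-parameter fit.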
On the technique in general: TR-FRET usually uses a lanthanide donor and a delayed reading to cut background.

The target of test [2] is T2, CDK4/Cyclin D1 (Homo sapiens, UniProt P11802).
T2 construct: purchased ProQinase; host or cells: insect cell
T2 sequence (P11802 whole entry): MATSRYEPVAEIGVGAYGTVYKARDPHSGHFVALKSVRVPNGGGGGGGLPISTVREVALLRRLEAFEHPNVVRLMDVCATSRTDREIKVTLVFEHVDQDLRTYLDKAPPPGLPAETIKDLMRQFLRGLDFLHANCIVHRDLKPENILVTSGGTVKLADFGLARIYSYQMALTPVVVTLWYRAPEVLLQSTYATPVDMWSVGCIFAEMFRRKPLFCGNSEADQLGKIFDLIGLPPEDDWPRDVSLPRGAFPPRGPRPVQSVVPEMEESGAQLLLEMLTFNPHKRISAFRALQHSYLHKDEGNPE
T2 sequence (P24385 whole entry partner): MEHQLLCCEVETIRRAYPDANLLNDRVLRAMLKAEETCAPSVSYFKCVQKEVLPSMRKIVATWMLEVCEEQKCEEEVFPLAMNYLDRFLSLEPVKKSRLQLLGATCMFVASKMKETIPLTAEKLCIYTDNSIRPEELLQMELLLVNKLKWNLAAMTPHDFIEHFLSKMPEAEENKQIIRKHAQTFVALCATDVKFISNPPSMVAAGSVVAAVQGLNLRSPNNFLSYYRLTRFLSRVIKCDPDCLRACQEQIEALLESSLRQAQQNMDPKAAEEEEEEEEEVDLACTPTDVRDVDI
Put plainly: CDK4/CyclinD1 Enzymatic Activity Assay (TR-FRET). Format: biochemical. The settings on record: ATP 2 mM final, read-out: CDK4_D1 IC50. The method, then:
CDK4/CyclinD1 Enzymatic Activity Assay
The inhibitory activity of compounds was evaluated in vitro using TR-FRET assay with white 384-well low volume microplate (Greiner Bio-One). CDK4/Cyclin D1 catalyzed phosphorylation of peptide in the presence and absence of compounds was measured and used in IC50 determination. Recombinant protein complex CDK4/Cyclin D1, expressed from insect cell, was purchased from ProQinase. Testing compounds were dissolved in DMSO at 1 mM and tested in 9-dose IC50 mode. The reaction mixture was prepared by mixing CDK4/CyclinD1 (1 nM final), ULight-4E-BP1 (100 nM final, Perkinelmer, TRF0128-D), and ATP (2 mM final) in assay buffer (20 mM of HEPES pH 7.4, 1 mM of EGTA, 0.05% BSA, 0.005% Tween 20, and 1 mM TCEP). The compound of interest in DMSO was added to each well in 3-fold serial dilution by the dispenser (TECAN D300E) to make a 9.9 μL of reaction mixture. After 20 minutes preincubation at room temperature, 0.1 μL MgCl2 (10 mM final) was added to initiate the reaction. Following a 45-minute incubation at 37° C., the reaction was stopped by addition of 2 μL of quenching buffer consisting of Lance detection buffer (Perkinelmer CR97-100C), LANCE Ultra Europium-anti-P-4E-BP1 (Perkinelmer, TRF0216-D), EDTA, and incubated at room temperature for additional 60 minutes in dark. The reaction signal was measured by Envision multimode plate reader (PerkinElmer, 2102-0010). IC50 values were determined by fitting the data to the standard 4 parameters with Hill Slope using GraphPad Prism software.

Test [3] relates to OVCAR3 p-RB. Kind of test: pRB ICW Assay in OVCAR3 Cells. Format: cell-based. The settings on record: Homo sapiens, OVCAR-3, incubated with compound for 2 hours. The gist of the method:
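OVCAR3 cells were treated 2 h at 37° C. with a 9-point half-log compound series, duplicate wells, with 10 μM reference compound as maximum inhibition. Fixed, permeabilized cells were stained with anti-phospho-RB plus DRAQ5 and imaged at 700/800 nm (In-Cell Western).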

As a reminder, the IC50 is the midpoint of a concentration-inhibition curve. As for `CC(O)c1sc(-c2nc(N[C@@H]3CCN(S(=O)(=O)c4cn(C)cn4)C[C@H]3F)ncc2C(F)(F)F)cc1C#N` (stereo partly drawn) [Example 37, 5-(2-(((3R,4R)-3-fluoro-1-((1-methyl-1H-imidazol-4-yl)sulfonyl)piperidin-4-yl)amino)-5-(trifluoromethyl)pyrimidin-4-yl)-2-(1-hydroxyethyl)thiophene-3-carbonitrile], the concentration for half-maximal inhibition (IC50) in test [1], in test [2] and in test [3] was no more than 100 nM each time.
Take `C[C@@H]1CN(S(=O)(=O)c2cnn(C)c2)CC[C@@H]1Nc1ncc(C(F)(F)F)c(-c2cc(C#N)c(CC(C)(C)O)s2)n1` [Example 38, 2-(2-hydroxy-2-methylpropyl)-5-(2-(((3R,4S)-3-methyl-1-((1-methyl-1H-pyrazol-4-yl)sulfonyl)piperidin-4-yl)amino)-5-(trifluoromethyl)pyrimidin-4-yl)thiophene-3-carbonitrile]: the figures for the half-maximal inhibitory concentration (IC50) in test [1], in test [2] and in test [3] were no more than 100 nM, 100 to 500 nM and 100 to 500 nM, respectively.
Regarding `Cn1cnc(S(=O)(=O)N2CCC(Nc3ncc(C(F)(F)F)c(-c4cc(C#N)c(CC(C)(C)O)s4)n3)CC2)c1` [Example 39, 2-(2-hydroxy-2-methylpropyl)-5-(2-((1-((1-methyl-1H-imidazol-4-yl)sulfonyl)piperidin-4-yl)amino)-5-(trifluoromethyl)pyrimidin-4-yl)thiophene-3-carbonitrile], the half-inhibitory concentration (IC50) in test [1], in test [2] and in test [3] was no more than 100 nM in each case.
For `C[C@@H]1CN(S(=O)(=O)c2cn(C)cn2)CC[C@@H]1Nc1ncc(C(F)(F)F)c(-c2cc(C#N)c(CC(C)(C)O)s2)n1` [Example 40, 2-(2-hydroxy-2-methylpropyl)-5-(2-(((3R,4S)-3-methyl-1-((1-methyl-1H-imidazol-4-yl)sulfonyl)piperidin-4-yl)amino)-5-(trifluoromethyl)pyrimidin-4-yl)thiophene-3-carbonitrile], the half-inhibitory concentration (IC50) was no more than 100 nM in test [1], 100 to 500 nM in test [2] and 100 to 500 nM in test [3].
`Cn1cc(S(=O)(=O)N2CC[C@H](Nc3ncc(C(F)(F)F)c(-c4cc(C#N)c(CC(C)(C)O)s4)n3)[C@H](F)C2)cn1` [Example 41, 5-(2-(((3R,4S)-3-fluoro-1-((1-methyl-1H-pyrazol-4-yl)sulfonyl)piperidin-4-yl)amino)-5-(trifluoromethyl)pyrimidin-4-yl)-2-(2-hydroxy-2-methylpropyl)thiophene-3-carbonitrile]: the IC50 in test [1], in test [2] and in test [3] was no more than 100 nM throughout.
With `Cn1cnc(S(=O)(=O)N2CC[C@H](Nc3ncc(C(F)(F)F)c(-c4cc(C#N)c(CC(C)(C)O)s4)n3)[C@H](F)C2)c1` [Example 42, 5-(2-(((3R,4S)-3-fluoro-1-((1-methyl-1H-imidazol-4-yl)sulfonyl)piperidin-4-yl)amino)-5-(trifluoromethyl)pyrimidin-4-yl)-2-(2-hydroxy-2-methylpropyl)thiophene-3-carbonitrile], the IC50 in test [1], in test [2] and in test [3] was no more than 100 nM each time.
As to `C[C@@H]1CN(S(C)(=O)=O)CC[C@@H]1Nc1ncc(C(F)(F)F)c(-c2cc(C(N)=O)c(CC(C)(C)O)s2)n1` [Example 43, 2-(2-hydroxy-2-methylpropyl)-5-(2-(((3R,4S)-3-methyl-1-(methylsulfonyl)piperidin-4-yl)amino)-5-(trifluoromethyl)pyrimidin-4-yl)thiophene-3-carboxamide], the half-maximal inhibitory concentration (IC50) is no more than 100 nM in test [1], 100 to 500 nM in test [2] and greater than 500 nM in test [3].
The matching figures for `C[C@@H]1CN(S(=O)(=O)c2cnn(C)c2)CC[C@@H]1Nc1ncc(C(F)(F)F)c(-c2cc(C(N)=O)c(CC(C)(C)O)s2)n1` [Example 44, 2-(2-hydroxy-2-methylpropyl)-5-(2-(((3R,4S)-3-methyl-1-((1-methyl-1H-pyrazol-4-yl)sulfonyl)piperidin-4-yl)amino)-5-(trifluoromethyl)pyrimidin-4-yl)thiophene-3-carboxamide]: no more than 100 nM, no more than 100 nM and no more than 100 nM.
The matching figures for `Cn1cnc(S(=O)(=O)N2CCC(Nc3ncc(C(F)(F)F)c(-c4cc(C(N)=O)c(CC(C)(C)O)s4)n3)CC2)c1` [Example 45, 2-(2-hydroxy-2-methylpropyl)-5-(2-((1-((1-methyl-1H-imidazol-4-yl)sulfonyl)piperidin-4-yl)amino)-5-(trifluoromethyl)pyrimidin-4-yl)thiophene-3-carboxamide]: no more than 100 nM, no more than 100 nM and no more than 100 nM.
With `Cn1cc(S(=O)(=O)N2CC[C@H](Nc3ncc(C(F)(F)F)c(-c4cc(C(N)=O)c(CC(C)(C)O)s4)n3)[C@H](F)C2)cn1` [Example 46, 5-(2-(((3R,4S)-3-fluoro-1-((1-methyl-1H-pyrazol-4-yl)sulfonyl)piperidin-4-yl)amino)-5-(trifluoromethyl)pyrimidin-4-yl)-2-(2-hydroxy-2-methylpropyl)thiophene-3-carboxamide], the IC50 in test [1], in test [2] and in test [3] was no more than 100 nM in each case.
In the case of `Cn1cnc(S(=O)(=O)N2CC[C@H](Nc3ncc(C(F)(F)F)c(-c4cc(C(N)=O)c(CC(C)(C)O)s4)n3)[C@H](F)C2)c1` [Example 47, 5-(2-(((3R,4S)-3-fluoro-1-((1-methyl-1H-imidazol-4-yl)sulfonyl)piperidin-4-yl)amino)-5-(trifluoromethyl)pyrimidin-4-yl)-2-(2-hydroxy-2-methylpropyl)thiophene-3-carboxamide], the IC50 in test [1] was no more than 100 nM; in test [2], no more than 100 nM; in test [3] it was 100 to 500 nM.
As for `Cn1cc(S(=O)(=O)N2CC[C@@H](Nc3ncc(C(F)(F)F)c(-c4cc(C(N)=O)c(CC(C)(C)O)s4)n3)[C@H](F)C2)cn1` [Example 48, 5-(2-(((3R,4R)-3-fluoro-1-((1-methyl-1H-pyrazol-4-yl)sulfonyl)piperidin-4-yl)amino)-5-(trifluoromethyl)pyrimidin-4-yl)-2-(2-hydroxy-2-methylpropyl)thiophene-3-carboxamide], the half-inhibitory concentration (IC50) in test [1], in test [2] and in test [3] was no more than 100 nM in each case.
Regarding `Cn1cnc(S(=O)(=O)N2CC[C@@H](Nc3ncc(C(F)(F)F)c(-c4cc(C(N)=O)c(CC(C)(C)O)s4)n3)[C@H](F)C2)c1` [Example 49, 5-(2-(((3R,4R)-3-fluoro-1-((1-methyl-1H-imidazol-4-yl)sulfonyl)piperidin-4-yl)amino)-5-(trifluoromethyl)pyrimidin-4-yl)-2-(2-hydroxy-2-methylpropyl)thiophene-3-carboxamide], the 50% inhibitory concentration (IC50) in test [1] was no more than 100 nM; in test [2], no more than 100 nM; in test [3] it was 100 to 500 nM.
As for `Cn1cnc(S(=O)(=O)N2CCC(Nc3ncc(C(F)(F)F)c(-c4cc(C(N)=O)ns4)n3)CC2)c1` [Example 50, 5-(2-((1-((1-methyl-1H-imidazol-4-yl)sulfonyl)piperidin-4-yl)amino)-5-(trifluoromethyl)pyrimidin-4-yl)isothiazole-3-carboxamide], the half-inhibitory concentration (IC50) in test [1], in test [2] and in test [3] was no more than 100 nM in each case.
With `Cn1cc(S(=O)(=O)N2CCC(Nc3ncc(C(F)(F)F)c(-c4cc(C(N)=O)c(CC(C)(C)O)s4)n3)CC2)cn1` [Example 51, 2-(2-hydroxy-2-methylpropyl)-5-(2-((1-((1-methyl-1H-pyrazol-4-yl)sulfonyl)piperidin-4-yl)amino)-5-(trifluoromethyl)pyrimidin-4-yl)thiophene-3-carboxamide], the half-inhibitory concentration (IC50) in test [1], in test [2] and in test [3] was no more than 100 nM throughout.
Take `Cc1sc(-c2nc(N[C@H]3CCN(S(C)(=O)=O)C[C@H]3C)ncc2C(F)(F)F)cc1C(N)=O` [Example 52, 2-methyl-5-(2-(((3R,4S)-3-methyl-1-(methylsulfonyl)piperidin-4-yl)amino)-5-(trifluoromethyl)pyrimidin-4-yl)thiophene-3-carboxamide]: the IC50 in test [1] was no more than 100 nM; in test [2], 100 to 500 nM; in test [3] it was 100 to 500 nM.
